Measurements: US10307353B2, “1-phenylmono- or -polyhydroxypropane compounds, compositions and cosmetic uses thereof” (L'OREAL, priority 2015, dated 2019)

Test system: AMPK (phospho-AMPK Thr-172)
Experiment: Level of expression of p-AMPK (Thr-172) in normal human epidermal keratinocytes, Western blotting
Assay type: cell-based
Conditions: for p-AMPK/AMPK ratio relative to the control (100%): 18 hours incubation; for p-AMPK/GAPDH ratio relative to the control (100%): 48 hours incubation
Procedure: Normal human epidermal keratinocytes are seeded at 180 000 cells per well and cultured in SFM culture medium (supplier Gibco) supplemented with 0.25 ng/ml EGF, 25 μg/ml of pituitary extract and 25 μg/ml gentamicin, up to confluence, and incubated in a humid oven at 37° C. and 5% CO2. The culture medium was then replaced with test medium (SFM (Gibco) supplemented with 25 μg/ml gentamicin) containing or not containing (control) the test compounds, or the references (AICAR—(5-amino-4-imidazole carboxamide riboside) at 500 μM). The cells were then incubated for 18 or 48 hours. The level of expression of p-AMPK was analyzed by Western blotting. At the end of the incubation, the proteins were extracted and quantified and then separated by electrophoresis on 10% polyacrylamide gel and then transferred onto a nitrocellulose membrane. […] Between each successive revelation, the antibodies were detached using a “stripping” buffer. The images were acquired with a Fuji LAS 3000 chemiluminescence scanner (Fujifilm) and the densitometric analyses were performed using the Multigauge software (Fujifilm). An increase in the phosphorylated form of AMPK (active form of the enzyme) relative to the control is evaluated in this test. Results Expressed in the form of the p-AMPK/GAPDH ratio relative to the control (100%): […]

NC(=O)c1ncn([C@@H]2O[C@H](CO)[C@@H](O)[C@H]2O)c1N [AICAR, 5-amino-4-imidazole carboxamide riboside, reference compound]
p-AMPK/AMPK ratio relative to the control (100%) (500 μM): 177% ± 31%
p-AMPK/GAPDH ratio relative to the control (100%) (500 μM): 279 ± 96%

COc1cc(CC(C)O)ccc1O (stereo not drawn) [Compound 1]
p-AMPK/AMPK ratio relative to the control (100%) (500 μM): 132% ± 11%

COc1cc(CC(O)CO)ccc1O (stereo not drawn) [Compound 5]
p-AMPK/GAPDH ratio relative to the control (100%) (1 μM): 116 ± 17%
p-AMPK/GAPDH ratio relative to the control (100%) (10 μM): 149 ± 25%
p-AMPK/GAPDH ratio relative to the control (100%) (100 μM): 136 ± 14%
